# Data as given in US20250340551A1, “SMALL MOLECULE MODULATORS OF STAT6” (Gilead Sciences, Inc., priority 2024, published 2025).
# Target: human STAT6 (Homo sapiens (Human), UniProt P42226)
# Assay: Surface plasmon resonance assay (Biacore 8K, binding to immobilized STAT6)
# Conditions: human STAT6 aa122-658, N-terminal His-tag, CM5 chip, 25° C.; geometric mean; read-out: STAT6 SPR Kd
# Procedure: Biacore instruments from the 8K-series (Cytiva) were used, and measurements were performed at 25° C. Human STAT6 (truncated, aa122-658, with N-terminal His-tag, expressed in insect cells) was immobilized in the active flow cells on a CM5 chip using amine-coupling (default settings) at 10 μg/ml in 10 mM acetate buffer pH 5.5, at a contact time of 120-420 sec. and a flow rate of 10 μl/min. Reference flow cells were deactivated using blank immobilization. PBS-P+ (Cytiva) supplemented with 2% DMSO was used as running buffer, and solvent correction was applied. Compounds were tested by multi-cycle kinetics injections using a contact time of 60 sec., dissociation time of up to 300 sec., and a flow rate of 30 μl/min.
# Solvent-corrected, reference-subtracted and blank-corrected data was processed and binding isotherms were fitted according to a single report point from each sensorgram (Standard: Late binding (5 sec. before injection end); alternative: Earlier report point according to binding profile). Data fitting was done both with unfixed Rmax and with Rmax fixed to the theoretical value* assuming 1:1 binding to allow processing of data from both weak and strong binders as well as to evaluate binding stoichiometry.
# Positive controls were run at the beginning, during, and at the end of the screen to evaluate surface activity.
# Chain of human STAT6 (P42226 122-658): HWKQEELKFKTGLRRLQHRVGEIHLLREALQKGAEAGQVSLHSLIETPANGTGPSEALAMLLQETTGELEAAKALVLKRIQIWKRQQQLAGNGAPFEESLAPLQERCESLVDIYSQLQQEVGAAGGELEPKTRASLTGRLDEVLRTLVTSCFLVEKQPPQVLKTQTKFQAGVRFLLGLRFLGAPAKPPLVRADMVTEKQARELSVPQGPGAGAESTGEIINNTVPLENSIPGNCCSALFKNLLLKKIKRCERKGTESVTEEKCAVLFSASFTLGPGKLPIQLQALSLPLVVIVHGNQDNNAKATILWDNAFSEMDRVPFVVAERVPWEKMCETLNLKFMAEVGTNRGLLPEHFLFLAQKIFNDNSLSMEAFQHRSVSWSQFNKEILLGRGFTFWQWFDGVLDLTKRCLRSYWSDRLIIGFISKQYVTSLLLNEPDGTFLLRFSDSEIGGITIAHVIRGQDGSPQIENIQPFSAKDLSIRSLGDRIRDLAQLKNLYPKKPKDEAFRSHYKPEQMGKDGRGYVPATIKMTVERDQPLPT
row,SMILES,Kd [nM]
1,"[2H]C([2H])([2H])N(C(=O)c1ccc(C2CCN(Cc3cc4c(-c5cnc(N)cc5F)ccnc4n3C)CC2)cc1)C([2H])([2H])[2H] [Example 1k16, 4-[1-[[4-(6-Amino-4-fluoro-3-pyridyl)-1-methyl-pyrrolo[2,3-b]pyridin-2-yl]methyl]-4-piperidyl]-N,N-bis(trideuteriomethyl)benzamide]",22.6
2,"Cc1c(-c2ccnc3c2cc(CN2CCC(c4ccc(C(=O)N(C)C)cc4)CC2)n3C)cnc(N)c1C#N [Example 1k42, 4-[1-[[4-(6-Amino-5-cyano-4-methyl-3-pyridyl)-1-methyl-pyrrolo[2,3-b]pyridin-2-yl]methyl]-4-piperidyl]-N,N-dimethyl-benzamide]",731
3,"CC(=O)Nc1ccc(-c2ccnc3c2cc(CN2CC[C@H](c4ccc(C(=O)N(C)C)cc4)[C@@H](C)C2=O)n3C)cc1 (single isomer, unassigned) [1aa2′]",116
4,"[2H]C([2H])([2H])N(C(=O)c1ccc(C2CCN([C@H](C)c3cc4c(-c5ccc(N)nc5C#N)ccnc4n3C)CC2)cc1)C([2H])([2H])[2H] [Example 1af30, (R)-4-(1-(1-(4-(6-amino-2-cyanopyridin-3-yl)-1-methyl-1H-pyrrolo[2,3-b]pyridin-2-yl)ethyl)piperidin-4-yl)-N,N-bis(methyl-d3)benzamide]",24.1
5,"CCS(=O)(=O)n1c(CN2CCC(c3ccc(C(=O)N(C)C)cc3)CC2)cc2c(-c3ccc(NC)nc3)ccnc21 [Example 1x2, 4-[1-[[1-Ethylsulfonyl-4-[6-(methylamino)-3-pyridyl]pyrrolo[2,3-b]pyridin-2-yl]methyl]-4-piperidyl]-N,N-dimethyl-benzamide]",54.1
6,"CN(C)C(=O)c1ccc(C2CCN(Cc3cc4c(-c5ccc(N)c(-c6nnn[nH]6)c5)ccnc4n3C)CC2)cc1 [Example 1k60, 4-[1-[[4-[4-Amino-3-(2H-tetrazol-5-yl)phenyl]-1-methyl-pyrrolo[2,3-b]pyridin-2-yl]methyl]-4-piperidyl]-N,N-dimethyl-benzamide]",35.9
7,"CCOC(=O)c1nc(N)ccc1-c1ccnc2c1cc(CN1CCC(c3ccc(C(=O)N(C)C)cc3)CC1)n2C [Example 1k35, Ethyl 6-amino-3-[2-[[4-[4-(dimethylcarbamoyl)phenyl]-1-piperidyl]methyl]-1-methyl-pyrrolo[2,3-b]pyridin-4-yl]pyridine-2-carboxylate]",11
8,"CNc1ccc(-c2ccnc3c2cc(CN2CC[C@H](c4ccc(C(=O)N(C)C)cc4)[C@@H](F)C2)n3C)nc1 (stereo in doubt) [Example 1o18, 4-((3R,4R)-3-fluoro-1-((1-methyl-4-(5-(methylamino)pyridin-2-yl)-1H-pyrrolo[2,3-b]pyridin-2-yl)methyl)piperidin-4-yl)-N,N-dimethylbenzamide]",139
9,"CN(C)C(=O)c1ccc(C2CCN(Cc3cc4c(-c5ccc(N)nc5OC(F)(F)F)ccnc4n3C)CC2)cc1 [Example 1k18, 4-[1-[[4-[6-Amino-2-(trifluoromethoxy)-3-pyridyl]-1-methyl-pyrrolo[2,3-b]pyridin-2-yl]methyl]-4-piperidyl]-N,N-dimethyl-benzamide]",153
10,"[2H]C([2H])([2H])n1c(CN2CCC(c3ccc(C(=O)N(C)C)cc3)CC2)cc2c(-c3ccc(N)nc3C#N)ccnc21 [Example 1k45, 4-[1-[[4-(6-Amino-2-cyano-3-pyridyl)-1-(trideuteriomethyl)pyrrolo[2,3-b]pyridin-2-yl]methyl]-4-piperidyl]-N,N-dimethyl-benzamide]",27.7
11,"C[C@H]1CN(c2ccc(C(=O)N(C)C)cc2)CCN1Cc1cc2c(-c3ccc(N)nc3)ccnc2n1C [Example 1n5, 4-[(3S)-4-[[4-(6-Amino-3-pyridyl)-1-methyl-pyrrolo[2,3-b]pyridin-2-yl]methyl]-3-methyl-piperazin-1-yl]-N,N-dimethyl-benzamide]",68.6
12,"Cc1nc(N)cnc1-c1ccnc2c1cc(CN1CCC(c3ccc(C(=O)N(C)C)cc3)CC1)n2C [Example 1k39, 4-[1-[[4-(5-Amino-3-methyl-pyrazin-2-yl)-1-methyl-pyrrolo[2,3-b]pyridin-2-yl]methyl]-4-piperidyl]-N,N-dimethyl-benzamide]",2280
13,"CN(C)C(=O)c1ccc(C2CCN(Cc3cc4c(-c5ccc(N)c(C(F)(F)F)n5)ccnc4n3C)CC2)cc1 [Example 1k76, 4-[1-[[4-[5-Amino-6-(trifluoromethyl)-2-pyridyl]-1-methyl-pyrrolo[2,3-b]pyridin-2-yl]methyl]-4-piperidyl]-N,N-dimethyl-benzamide]",999
14,"CNc1ccc(-c2ccnc3c2cc(CN2CC[C@@H](c4ccc(C(=O)N(C)C)cc4)[C@@H](F)C2)n3C)cn1 (stereo in doubt) [Example 1s27, N,N-Dimethyl-4-[(3R,4S)-3-fluoro-1-[[1-methyl-4-[6-(methylamino)-3-pyridyl]pyrrolo[2,3-b]pyridin-2-yl]methyl]-4-piperidyl]benzamide]",40.6
15,"CNc1ccc(-c2ccnc3c2cc(CN2CCN(c4ccc(C(=O)N(C)C)cn4)CC2)n3C)cn1 [Example 1n7, N,N-Dimethyl-6-[4-[[1-methyl-4-[6-(methylamino)-3-pyridyl]pyrrolo[2,3-b]pyridin-2-yl]methyl]piperazin-1-yl]pyridine-3-carboxamide]",1040
16,"CNc1ccc(-c2ccnc3c2cc(CN2CCC(F)(c4ccc(C(=O)N(C)C)cc4)CC2)n3C)cn1 [Example 1s26, 4-[4-Fluoro-1-[[1-methyl-4-[6-(methylamino)-3-pyridyl]pyrrolo[2,3-b]pyridin-2-yl]methyl]-4-piperidyl]-N,N-dimethyl-benzamide]",61.6
17,"CN(C)C(=O)c1ccc(C2CCN(Cc3cc4c(-c5ccc(N)c(C(=O)C(=O)O)c5)ccnc4n3C)CC2)cc1 [Example 1j13, 2-(2-Amino-5-(2-((4-(4-(dimethylcarbamoyl)phenyl)piperidin-1-yl)methyl)-1-methyl-1H-pyrrolo[2,3-b]pyridin-4-yl)phenyl)-2-oxoacetic acid]",12.8
18,"CN(C)C(=O)c1ccc(C2CCN(Cc3cc4c(-c5c(C(F)F)cc(N)cc5C(F)F)ccnc4n3C)CC2)cc1 [Example 1k55, 4-[1-[[4-[4-Amino-2,6-bis(difluoromethyl)phenyl]-1-methyl-pyrrolo[2,3-b]pyridin-2-yl]methyl]-4-piperidyl]-N,N-dimethyl-benzamide]",1010
19,"CNc1ccc(-c2ccnc3c2cc([C@H](C)N2CCC(c4ccc(C(=O)N(C)C)cc4)CC2)n3C)cn1 (single isomer, unassigned) [Example 1af7]",222
20,"[2H]C([2H])([2H])N(C(=O)c1ccc(C2=CCN([C@@H](C)c3cc4c(-c5ccc(N)cn5)ccnc4n3C)CC2)c(C)c1)C([2H])([2H])[2H] [Example 1af31, (S)-4-(1-(1-(4-(5-aminopyridin-2-yl)-1-methyl-1H-pyrrolo[2,3-b]pyridin-2-yl)ethyl)-1,2,3,6-tetrahydropyridin-4-yl)-3-methyl-N,N-bis(methyl-d3)benzamide]",169
21,"Cc1cc(C(=O)N(C)C)ccc1C1=CCN([C@@H](C)c2cc3c(-c4ccc(N)cn4)ccnc3n2C)CC1 [Example 1af32, (S)-4-(1-(1-(4-(5-Aminopyridin-2-yl)-1-methyl-1H-pyrrolo[2,3-b]pyridin-2-yl)ethyl)-1,2,3,6-tetrahydropyridin-4-yl)-N,N,3-trimethylbenzamide]",286
22,"CN(C)C(=O)c1ccc(C2CCN(Cc3cc4c(-c5ccc(N)c(Cl)n5)ccnc4n3C)CC2)cc1 [Example 1k77, 4-(1-((4-(5-Amino-6-chloropyridin-2-yl)-1-methyl-1H-pyrrolo[2,3-b]pyridin-2-yl)methyl)piperidin-4-yl)-N,N-dimethylbenzamide]",52.3
23,"CNc1ccc(-c2ccnc3c2cc(CN2CCC(c4ccc(C(=O)N(C)C)cc4)CC2=O)n3C)cn1 (stereo in doubt) [Example 1s4, N,N-dimethyl-4-[(4S)-1-[[1-methyl-4-[6-(methylamino)-3-pyridyl]pyrrolo[2,3-b]pyridin-2-yl]methyl]-2-oxo-4-piperidyl]benzamide]",51.1
24,"C[C@@H](c1cc2c(-c3ccc(N)cn3)ccnc2n1C)N1CCC(c2ccc(C(=O)N(C)C)cc2)CC1 [Example 1af15, (S)-4-(1-(1-(4-(5-amino-pyridin-2-yl)-1-methyl-1H-pyrrolo[2,3-b]pyridin-2-yl)-ethyl)piperidin-4-yl)-N,N-dimethylbenzamide]",438
25,"Cc1cc(-c2ccnc3c2cc(CN2CCC(c4ccc(C(=O)N(C)C)cc4)CC2)n3C)c(C)nc1N [Example 1k31, 4-[1-[[4-(6-Amino-2,5-dimethyl-3-pyridyl)-1-methyl-pyrrolo[2,3-b]pyridin-2-yl]methyl]-4-piperidyl]-N,N-dimethyl-benzamide]",78.5
26,"C[C@H]1C[C@H](c2ccc(C(=O)N(C)C)cc2)CCN1Cc1cc2c(-c3ccc(N)nc3C#N)ccnc2n1C (single isomer, unassigned) [Example 1q2]",2560
27,"CN(C)C(=O)c1ccc(N2CCN(Cc3cc4c(-c5ccc(N)nc5)ccnc4n3C)C(=O)C2)cc1 [Example 1ae7, 4-[4-[[4-(6-Amino-3-pyridyl)-1-methyl-pyrrolo[2,3-b]pyridin-2-yl]methyl]-3-oxo-piperazin-1-yl]-N,N-dimethyl-benzamide]",67.8
